From US6350585B1, “Reagent for assay of amylase isozyme activity” (priority 1998, dated 2002)

Biological target: T1, S-type amylase (Calibzyme S) (Homo sapiens, UniProt P0DUB6)
T1 construct: purchased International Reagents Corporation Calibzyme S
T1 sequence (P0DUB6 16-511): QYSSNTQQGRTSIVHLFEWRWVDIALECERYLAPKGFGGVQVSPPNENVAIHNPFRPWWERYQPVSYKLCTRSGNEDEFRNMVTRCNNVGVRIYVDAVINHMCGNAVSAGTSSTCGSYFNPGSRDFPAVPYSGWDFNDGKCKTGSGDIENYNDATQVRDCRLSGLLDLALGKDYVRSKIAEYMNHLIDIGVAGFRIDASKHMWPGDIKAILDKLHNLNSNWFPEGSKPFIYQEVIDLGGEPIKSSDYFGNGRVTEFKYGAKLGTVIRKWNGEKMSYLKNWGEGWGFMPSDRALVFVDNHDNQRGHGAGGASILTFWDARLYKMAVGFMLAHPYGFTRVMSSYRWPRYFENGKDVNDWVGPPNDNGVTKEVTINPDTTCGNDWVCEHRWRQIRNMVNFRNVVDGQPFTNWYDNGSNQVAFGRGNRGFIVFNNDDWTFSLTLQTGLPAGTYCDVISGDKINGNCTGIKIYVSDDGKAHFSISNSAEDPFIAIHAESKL
Assay: amylase isozyme activity assay with sodium azide as activator, S-type amylase sample
Type: biochemical
Conditions: for Change in absorbance, Containing Antibody (Composition C) / Change in absorbance, Without antibody (Composition D) / Relative sensitivity / Percent residual enzyme activity: S-type amylase; for Relative sensitivity: G3CNP at 300 mM = 100; for Percent residual enzyme activity: composition C/D; for percent inhibition of S-type amylase: irrespective of sodium azide concentrations, FIG. 4 and FIG. 5
Method: S-type amylase inhibitory antibody 88E8 (manufactured by Roche Diagnostics K.K.) 20 mg/L
S-type amylase inhibitory antibody 66C7 (manufactured by Roche Diagnostics K.K.) 5 mg/L
Substrate (GalG2CNP (Example) or G3CNP (Comparative Example)) 2.6 mM
(3) S-type Amylase (Calibzyme S, Manufactured by International Reagents Corporation)
Each of the above-mentioned samples (0.05 mL) was added to respective reagent C and D (3 mL) and the mixtures were left standing at 37° C. for 3 minutes. Then, change in absorbance at 405 nm was assayed and change in absorbance per minute was calculated.
In the Tables, P is the case where P-type amylase was used as the sample, and S is the case where S-type amylase was used. The relative sensitivity of P and S is based on the change in absorbance of G3CNP as 100, wherein sodium azide was 300 mM.
Percent residual enzyme activity and relative sensitivity were calculated by the following formulas.
Percent residual enzyme activity (%)=(change in absorbance of composition C)/(change in absorbance of composition D)×100
Relative sensitivity (%)=(change in absorbance of composition D)/(change in absorbance of Comparative Example wherein sodium azide was 300 mM)×100

Compound | Change in absorbance, Containing Antibody (Composition C) (sodium azide 0 mM) [mABS/min] | Change in absorbance, Without antibody (Composition D) (sodium azide 0 mM) [mABS/min] | Relative sensitivity (sodium azide 0 mM) [%] | Percent residual enzyme activity (sodium azide 0 mM) [%] | Change in absorbance, Containing Antibody (Composition C) (sodium azide 30 mM) [mABS/min] | Change in absorbance, Without antibody (Composition D) (sodium azide 30 mM) [mABS/min] | Relative sensitivity (sodium azide 30 mM) [%] | Percent residual enzyme activity (sodium azide 30 mM) [%] | Change in absorbance, Containing Antibody (Composition C) (sodium azide 60 mM) [mABS/min] | Change in absorbance, Without antibody (Composition D) (sodium azide 60 mM) [mABS/min] | Relative sensitivity (sodium azide 60 mM) [%] | Percent residual enzyme activity (sodium azide 60 mM) [%] | Change in absorbance, Containing Antibody (Composition C) (sodium azide 90 mM) [mABS/min] | Change in absorbance, Without antibody (Composition D) (sodium azide 90 mM) [mABS/min] | Relative sensitivity (sodium azide 90 mM) [%] | Percent residual enzyme activity (sodium azide 90 mM) [%] | Change in absorbance, Containing Antibody (Composition C) (sodium azide 120 mM) [mABS/min] | Change in absorbance, Without antibody (Composition D) (sodium azide 120 mM) [mABS/min] | Relative sensitivity (sodium azide 120 mM) [%] | Percent residual enzyme activity (sodium azide 120 mM) [%] | also measured
O=[N+]([O-])c1ccc(O[C@H]2O[C@H](CO)[C@@H](O[C@H]3O[C@H](CO)[C@@H](O[C@@H]4O[C@H](CO)[C@H](O)[C@H](O)[C@H]4O)[C@H](O)[C@H]3O)[C@H](O)[C@H]2O)c(Cl)c1 [GalG2CNP, 2-chloro-4-nitrophenyl 4-O-β-D-galactopyranosylmaltoside] | 0.8 | 14.6 | 31.8 | 5.5 | 1.6 | 33.2 | 72.3 | 4.8 | 2.0 | 43.8 | 95.4 | 4.6 | 2.4 | 49.6 | 108.1 | 4.8 | 2.6 | 53.1 | 115.7 | 4.9 | Change in absorbance, Containing Antibody (Composition C) (sodium azide 150 mM): 2.4 mABS/min; Change in absorbance, Without antibody (Composition D) (sodium azide 150 mM): 57.8 mABS/min; Relative sensitivity (sodium azide 150 mM): 125.9%; Percent residual enzyme activity (sodium azide 150 mM): 4.2%; Change in absorbance, Containing Antibody (Composition C) (sodium azide 200 mM): 2.6 mABS/min; Change in absorbance, Without antibody (Composition D) (sodium azide 200 mM): 61.1 mABS/min; Relative sensitivity (sodium azide 200 mM): 133.1%; Percent residual enzyme activity (sodium azide 200 mM): 4.3%; Change in absorbance, Containing Antibody (Composition C) (sodium azide 250 mM): 2.5 mABS/min; Change in absorbance, Without antibody (Composition D) (sodium azide 250 mM): 67.3 mABS/min; Relative sensitivity (sodium azide 250 mM): 146.6%; Percent residual enzyme activity (sodium azide 250 mM): 3.7%; Change in absorbance, Containing Antibody (Composition C) (sodium azide 300 mM): 2.6 mABS/min; Change in absorbance, Without antibody (Composition D) (sodium azide 300 mM): 66.8 mABS/min; Relative sensitivity (sodium azide 300 mM): 145.5%; Percent residual enzyme activity (sodium azide 300 mM): 3.9%; percent inhibition of S-type amylase: around 95%
O=[N+]([O-])c1ccc(O[C@H]2O[C@H](CO)[C@@H](O[C@H]3O[C@H](CO)[C@@H](O[C@H]4O[C@H](CO)[C@@H](O)[C@H](O)[C@H]4O)[C@H](O)[C@H]3O)[C@H](O)[C@H]2O)c(Cl)c1 [Example G3CNP, 2-chloro-4-nitrophenylmaltotrioside, reference compound] | 0.3 | 4.7 | 10.2 | 6.4 | 0.9 | 15.7 | 34.2 | 5.7 | 1.0 | 22.4 | 48.8 | 4.5 | 1.6 | 28.6 | 62.3 | 5.6 | 1.5 | 31.0 | 67.5 | 4.8 | Change in absorbance, Containing Antibody (Composition C) (sodium azide 150 mM): 1.6 mABS/min; Change in absorbance, Without antibody (Composition D) (sodium azide 150 mM): 35.8 mABS/min; Relative sensitivity (sodium azide 150 mM): 78.0%; Percent residual enzyme activity (sodium azide 150 mM): 4.5%; Change in absorbance, Containing Antibody (Composition C) (sodium azide 200 mM): 1.9 mABS/min; Change in absorbance, Without antibody (Composition D) (sodium azide 200 mM): 41.1 mABS/min; Relative sensitivity (sodium azide 200 mM): 89.5%; Percent residual enzyme activity (sodium azide 200 mM): 4.6%; Change in absorbance, Containing Antibody (Composition C) (sodium azide 250 mM): 2.2 mABS/min; Change in absorbance, Without antibody (Composition D) (sodium azide 250 mM): 44.5 mABS/min; Relative sensitivity (sodium azide 250 mM): 96.9%; Percent residual enzyme activity (sodium azide 250 mM): 4.9%; Change in absorbance, Containing Antibody (Composition C) (sodium azide 300 mM): 2.3 mABS/min; Change in absorbance, Without antibody (Composition D) (sodium azide 300 mM): 45.9 mABS/min; Relative sensitivity (sodium azide 300 mM): 100.0%; Percent residual enzyme activity (sodium azide 300 mM): 5.0%; percent inhibition of S-type amylase: around 95%
